According to US6914045B2, “Glycopeptide antibiotics” (Wyeth Holdings Corporation, priority 2001, dated 2005):
≈ marks a conversion by molar mass, not a printed value.

Columns and labels:
Experiment in all cases: in vitro antibacterial evaluation, MIC by broth dilution
Type in all cases: cell-based
Staphylococcus sp. = settings: broth dilution, 18 hours at 35° C.
Procedure, shortened: (§1)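 Broth dilution per NCCLS standard M7-A2 in Muller-Hinton II […], with an inoculum of 5×10^5 CFU/mL and antibiotic spanning 64-0.06 μg/mL. The MIC is the lowest concentration that inhibits growth of the organism.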

Streptococcus sp. = settings: broth dilution, 18 hours at 35° C.
Procedure, shortened: as §1

Enterococcus sp. = settings: broth dilution, 18 hours at 35° C.
Procedure, shortened: as §1

Escherichia coli = settings: 18 hours at 35° C.

MIC Coagulase Negative Staphylococcus (GC 4547) (Staphylococcus sp.): 2 µg/mL (≈ 1.37 µM)
MIC Coagulase Negative Staphylococcus (GC 4548) (Staphylococcus sp.): 2 µg/mL (≈ 1.37 µM)
MIC Coagulase Negative Staphylococcus (GC 4549) (Staphylococcus sp.): 2 µg/mL (≈ 1.37 µM)
MIC Coagulase Negative Staphylococcus (GC 4551) (Staphylococcus sp.): 4 µg/mL (≈ 2.74 µM)
MIC Coagulase Negative Staphylococcus (GC 6257) (Staphylococcus sp.): 1 µg/mL (≈ 0.685 µM)
MIC Staphylococcus aureus (ATCC 29213) (Staphylococcus sp.): 4 µg/mL (≈ 2.74 µM)
MIC Staphylococcus aureus (GC 1131) (Staphylococcus sp.): 4 µg/mL (≈ 2.74 µM)
MIC Staphylococcus aureus (GC 3051) (Staphylococcus sp.): 4 µg/mL (≈ 2.74 µM)
MIC Staphylococcus aureus (GC 3053) (Staphylococcus sp.): 8 µg/mL (≈ 5.48 µM)
MIC Staphylococcus aureus (GC 4541) (Staphylococcus sp.): 4 µg/mL (≈ 2.74 µM)
MIC Staphylococcus aureus (GC 4542) (Staphylococcus sp.): 4 µg/mL (≈ 2.74 µM)
MIC Staphylococcus aureus (GC 4544) (Staphylococcus sp.): 8 µg/mL (≈ 5.48 µM)
MIC Staphylococcus aureus (GC 4545) (Staphylococcus sp.): 2 µg/mL (≈ 1.37 µM)
MIC Staphylococcus aureus-SMITH (GC 4543) (Staphylococcus sp.): 4 µg/mL (≈ 2.74 µM)
MIC Staphylococcus aureus (ATCC 29213) (Staphylococcus sp.; strain ATCC 29213): 4 µg/mL (≈ 2.74 µM)
MIC Staphylococcus aureus (GC 1131) (Staphylococcus sp.; strain GC 1131): 4 µg/mL (≈ 2.74 µM)
MIC Staphylococcus aureus (GC 3051) (Staphylococcus sp.; strain GC 3051): 4 µg/mL (≈ 2.74 µM)
MIC Staphylococcus aureus (GC 3053) (Staphylococcus sp.; strain GC 3053): 8 µg/mL (≈ 5.48 µM)
MIC Staphylococcus aureus (GC 4541) (Staphylococcus sp.; strain GC 4541): 4 µg/mL (≈ 2.74 µM)
MIC Staphylococcus aureus (GC 4542) (Staphylococcus sp.; strain GC 4542): 4 µg/mL (≈ 2.74 µM)
MIC Staphylococcus aureus-SMITH (GC 4543) (Staphylococcus sp.; strain GC 4543): 4 µg/mL (≈ 2.74 µM)
MIC Staphylococcus aureus (GC 4544) (Staphylococcus sp.; strain GC 4544): 8 µg/mL (≈ 5.48 µM)
MIC Staphylococcus aureus (GC 4545) (Staphylococcus sp.; strain GC 4545): 2 µg/mL (≈ 1.37 µM)
MIC Coagulase Negative Staphylococcus (GC 4547) (Staphylococcus sp.; strain GC 4547): 2 µg/mL (≈ 1.37 µM)
MIC Coagulase Negative Staphylococcus (GC 4548) (Staphylococcus sp.; strain GC 4548): 2 µg/mL (≈ 1.37 µM)
MIC Coagulase Negative Staphylococcus (GC 4549) (Staphylococcus sp.; strain GC 4549): 2 µg/mL (≈ 1.37 µM)
MIC Coagulase Negative Staphylococcus (GC 4551) (Staphylococcus sp.; strain GC 4551): 4 µg/mL (≈ 2.74 µM)
MIC Coagulase Negative Staphylococcus (GC 6257) (Staphylococcus sp.; strain GC 6257): 1 µg/mL (≈ 0.685 µM)
MIC Streptococcus agalactiae (GC 4564) (Streptococcus sp.): 2 µg/mL (≈ 1.37 µM)
MIC Streptococcus pneumoniae (ATCC 6301) (Streptococcus sp.): 1 µg/mL (≈ 0.685 µM)
MIC Streptococcus pneumoniae (GC 1894) (Streptococcus sp.): 0.5 µg/mL (≈ 0.343 µM)
MIC Streptococcus pneumoniae (GC 4565) (Streptococcus sp.): 1 µg/mL (≈ 0.685 µM)
MIC Streptococcus pyogenes (GC 4563) (Streptococcus sp.): 1 µg/mL (≈ 0.685 µM)
MIC Streptococcus pneumoniae (ATCC 6301) (Streptococcus sp.; inoculum 5×10^5 CFU/mL, strain ATCC 6301): 1 µg/mL (≈ 0.685 µM)
MIC Streptococcus pneumoniae (GC 1894) (Streptococcus sp.; inoculum 5×10^5 CFU/mL, strain GC 1894): 0.5 µg/mL (≈ 0.343 µM)
MIC Streptococcus pyogenes (GC 4563) (Streptococcus sp.; inoculum 5×10^5 CFU/mL, strain GC 4563): 1 µg/mL (≈ 0.685 µM)
MIC Streptococcus agalactiae (GC 4564) (Streptococcus sp.; inoculum 5×10^5 CFU/mL, strain GC 4564): 2 µg/mL (≈ 1.37 µM)
MIC Streptococcus pneumoniae (GC 4565) (Streptococcus sp.; inoculum 5×10^5 CFU/mL, strain GC 4565): 1 µg/mL (≈ 0.685 µM)
MIC Enterococcus avium (GC 4558) (Enterococcus sp.): 16 µg/mL (≈ 11 µM)
MIC Enterococcus faecalis (ATCC 29212) (Enterococcus sp.): 16 µg/mL (≈ 11 µM)
MIC Enterococcus faecalis (GC 2242) (Enterococcus sp.): 16 µg/mL (≈ 11 µM)
MIC Enterococcus faecalis (GC 2691) (Enterococcus sp.): 16 µg/mL (≈ 11 µM)
MIC Enterococcus faecalis (GC 3059) (Enterococcus sp.): 32 µg/mL (≈ 21.9 µM)
MIC Enterococcus faecalis (GC 4552) (Enterococcus sp.): 32 µg/mL (≈ 21.9 µM)
MIC Enterococcus faecalis (GC 4553) (Enterococcus sp.): 32 µg/mL (≈ 21.9 µM)
MIC Enterococcus faecalis (GC 4554) (Enterococcus sp.): 32 µg/mL (≈ 21.9 µM)
MIC Enterococcus faecalis (GC 6189) (Enterococcus sp.): 16 µg/mL (≈ 11 µM)
MIC Enterococcus faecium (GC 2243) (Enterococcus sp.): 16 µg/mL (≈ 11 µM)
MIC Enterococcus faecium (GC 4556) (Enterococcus sp.): 32 µg/mL (≈ 21.9 µM)
MIC Enterococcus faecium (GC 4557) (Enterococcus sp.): 4 µg/mL (≈ 2.74 µM)
MIC Enterococcus faecalis (ATCC 29212) (Enterococcus sp.; strain ATCC 29212): 16 µg/mL (≈ 11 µM)
MIC Enterococcus faecium (GC 2243) (Enterococcus sp.; strain GC 2243): 16 µg/mL (≈ 11 µM)
MIC Enterococcus faecalis (GC 4552) (Enterococcus sp.; strain GC 4552): 32 µg/mL (≈ 21.9 µM)
MIC Enterococcus faecalis (GC 4553) (Enterococcus sp.; strain GC 4553): 32 µg/mL (≈ 21.9 µM)
MIC Enterococcus faecalis (GC 4554) (Enterococcus sp.; strain GC 4554): 32 µg/mL (≈ 21.9 µM)
MIC Enterococcus faecium (GC 4556) (Enterococcus sp.; strain GC 4556): 32 µg/mL (≈ 21.9 µM)
MIC Enterococcus faecium (GC 4557) (Enterococcus sp.; strain GC 4557): 4 µg/mL (≈ 2.74 µM)
MIC Enterococcus avium (GC 4558) (Enterococcus sp.; strain GC 4558): 16 µg/mL (≈ 11 µM)
MIC Enterococcus faecalis (GC 6189) (Enterococcus sp.; strain GC 6189): 16 µg/mL (≈ 11 µM)
MIC Enterococcus faecalis (GC 2242) (Enterococcus sp.; inoculum 5×10^5 CFU/mL, strain GC 2242): 16 µg/mL (≈ 11 µM)
MIC Enterococcus faecalis (GC 2691) (Enterococcus sp.; inoculum 5×10^5 CFU/mL, strain GC 2691): 16 µg/mL (≈ 11 µM)
MIC Enterococcus faecalis (GC 3059) (Enterococcus sp.; inoculum 5×10^5 CFU/mL, strain GC 3059): 32 µg/mL (≈ 21.9 µM)
MIC Escherichia coli (ATCC 25922) (Escherichia coli): >64 µg/mL
MIC Escherichia coli (GC 4559) (Escherichia coli): >64 µg/mL
MIC Escherichia coli (GC 4560) (Escherichia coli): 2 µg/mL (≈ 1.37 µM)
Compound: CCOc1cc(COCC2OC(OC3C(CO)OC(Oc4ccc(CC5NC(=O)C(C(C)c6ccccc6)NC(=O)CNC(=O)C(CO)NC(=O)C(C(O)C6CNC(=N)N6C6OC(CO)C(O)C(O)C6O)NC(=O)C(C(O)C6CNC(=N)N6)NC5=O)cc4)C(O)C3O)C(O)C(O)C2O)ccc1OC (stereo not shown) [Example 238]
MIC Staphylococcus haemolyticus (GC 4546) (Staphylococcus sp.): 2 µg/mL (≈ 1.37 µM)
MIC Staphylococcus haemolyticus (GC 4546) (Staphylococcus sp.; strain GC 4546): 2 µg/mL (≈ 1.37 µM)
